For one assay, the system named is A549. The experiment in a line: Cytotoxicity against human A549 cells after 72 hrs by CCK-8 assay. The format is functional, cell-based. The settings on record: A549, 72 h. (Tetrazolium assays rely on reduction of a dye to a coloured formazan, in cell work by metabolically active cells.)
Assay [1] is described as follows: Cytotoxicity against human PC3 cells after 72 hrs by CCK-8 assay. The class given is functional, cell-based. To be noted: PC-3, 72 h.

Molecules are shown by their SMILES.

In the case of `COC(=O)CC1CNC(=O)c2cccn21` (configuration not stated), the IC50 (in the assay on A549; in assay [1]) was above 200 µM throughout.

Turning to `COC(=O)CC1CNC(=O)c2ccc(Br)n21` (configuration not stated), the IC50 came to 65 µM in the assay on A549 and 70 µM in assay [1].

Consider `CCOC(=O)CC1CNC(=O)c2ccc(Br)n21` (configuration not stated), for which the IC50 with A549 is 32 µM; in assay [1] it was 29 µM.

For `COC(=O)Cc1c[nH]c(=O)c2ccc(Br)n12`, the figures for the IC50 (in the assay with A549; in assay [1]) were 165 µM and 176 µM, respectively.

As for `O=C(O)CC1CNC(=O)c2ccc(Br)n21` (configuration not stated), the IC50 (in the assay with A549; in assay [1]) was above 200 µM throughout.

Regarding `COC(=O)Cc1c[nH]c(=O)c2cccn12`, the IC50 (with A549; in assay [1]) was above 200 µM in each case.

Consider `COC(=O)Cc1c[nH]c(=O)c2cc(Br)c(Br)n12`, for which the IC50 (in the assay with A549; in assay [1]) was above 200 µM throughout.

`CCOC(=O)CC1CNC(=O)c2cc(Br)c(Br)n21` (racemic): the IC50 was 41 µM in the assay with A549 and 39 µM in assay [1].

On to `O=C(O)CC1CNC(=O)c2cc(Br)c(Br)n21` (racemic), for which the IC50 (with A549; in assay [1]) was above 200 µM throughout.

With `COC(=O)CC1CNC(=O)c2cc(Br)c(Br)n21` (racemic), the figures for the IC50 (with A549; in assay [1]) were 82 µM and 79 µM, respectively.

`CO[C@@]12[C@H](COC(N)=O)C3=C(C(=O)C(C)=C(N)C3=O)N1C[C@@H]1N[C@@H]12` [MITOMYCIN]: the IC50 was 1.7 µM in the assay on A549 and 1.4 µM in assay [1].

For orientation: IC50 means the concentration needed to halve the response being measured.
